Laboratory results published in patent US10590086B2, “Pharmaceutical compound” (IOmet Pharma Ltd., priority 2014, dated 2020).

How the values were obtained:
[1] = biological target: T1, IDO (Homo sapiens, UniProt P14902); assay: SKOV3 kynurenine cell-based assay (IDO induced by IFN-γ); parameters: IDO expression was induced in the SKOV3 cells by the addition of 500 ng/ml IFN-γ; endogenous in cells; host or cells: SKOV3 (human ovarian adenocarcinoma), induced with IFN-γ; conditions: SKOV3 human ovarian adenocarcinoma cells, 500 ng/ml IFN-γ, 48 hours, 500 μM L-tryptophan; read-out: SKOV3 Kynurenine cell based assay pIC50 (converted)
T1 sequence (P14902 whole entry): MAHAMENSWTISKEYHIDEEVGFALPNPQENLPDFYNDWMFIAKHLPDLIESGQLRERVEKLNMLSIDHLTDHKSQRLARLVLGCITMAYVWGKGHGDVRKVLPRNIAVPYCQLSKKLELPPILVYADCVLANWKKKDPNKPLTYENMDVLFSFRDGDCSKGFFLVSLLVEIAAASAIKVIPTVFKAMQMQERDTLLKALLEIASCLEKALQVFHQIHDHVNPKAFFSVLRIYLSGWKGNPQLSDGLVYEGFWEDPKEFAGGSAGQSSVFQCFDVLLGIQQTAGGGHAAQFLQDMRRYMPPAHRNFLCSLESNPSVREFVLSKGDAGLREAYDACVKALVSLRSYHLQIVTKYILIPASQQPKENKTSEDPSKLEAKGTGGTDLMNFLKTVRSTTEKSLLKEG
How it was run: (§1)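 Kynurenine in the culture supernatant was measured by absorbance at 490 nm after 5 minutes with Ehrlich's reagent. Cells had been exposed ±compound for 48 hours at 37 °C in phenol red-free RPMI, 10% FCS, 2 mM L-glutamine and 500 μM L-tryptophan. Seeding was 30,000/well for A172 (TDO) and 40,000/well for SKOV3 (IDO, induced with 500 ng/ml IFN-γ).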

[2] = biological target: T2, TDO (Homo sapiens, UniProt P48775); assay: A172 kynurenine cell-based assay; parameters: This assay utilised cancer cells which expressed either TDO or IDO; endogenous in cells; host or cells: A172 (human glioblastoma); conditions: A172 human glioblastoma cells, 48 hours, 500 μM L-tryptophan; read-out: A172 Kynurenine cell based assay pIC50 (converted)
T2 sequence (P48775 whole entry): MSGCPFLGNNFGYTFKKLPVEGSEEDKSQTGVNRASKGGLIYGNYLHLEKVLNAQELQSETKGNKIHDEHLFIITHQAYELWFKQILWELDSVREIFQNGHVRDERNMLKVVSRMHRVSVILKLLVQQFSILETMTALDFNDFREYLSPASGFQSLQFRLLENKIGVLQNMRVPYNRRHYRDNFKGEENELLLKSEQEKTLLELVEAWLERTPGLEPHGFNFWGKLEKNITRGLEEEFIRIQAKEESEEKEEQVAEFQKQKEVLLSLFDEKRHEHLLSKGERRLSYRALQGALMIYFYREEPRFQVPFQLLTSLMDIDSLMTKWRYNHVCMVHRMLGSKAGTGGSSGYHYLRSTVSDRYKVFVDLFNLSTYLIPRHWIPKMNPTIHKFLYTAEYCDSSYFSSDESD
How it was run: as §1

[3] = biological target: T2, TDO; assay: hTDO biochemical coupled assay; conditions: 330 μM L-tryptophan, 17 minutes, room temperature; read-out: hTDO biochemical assay pIC50 (converted)
Description: Two different assays were employed: 1. a cell-based assay for detecting the effect of test compounds on kynurenine production in two different cancer cell types. This assay utilised cancer cells which expressed either TDO or IDO and as such was used as a means of testing compound activity at these two enzymes in a cell-based context. 2. a TDO and IDO biochemical coupled assay which utilised recombinantly produced and purified TDO and IDO enzymes in combination with the enzyme formamidase. This coupled enzyme system allowed conversion of N-formylkynurenine produced by TDO or IDO activity to kynurenine which was then quantified by fluorescence following addition of Erhlich's Reagent The protocols for these are set out below.

[4] = biological target: T1, IDO; assay: hIDO biochemical coupled assay; conditions: 45 μM L-tryptophan, 17 minutes, room temperature; read-out: hIDO biochemical assay pIC50 (converted)

In the case of `CC(=O)N(C)C1CCN(c2cc(Cl)cc3[nH]ncc23)C1` (centres unmarked) [Compound 278], the IC50 [1] is reported as 3.24 to 31.6 µM, the IC50 [2] is reported as < 3.16 µM and the IC50 [3] is reported as < 3.16 µM. For the same compound, the IC50 [4] was 32.4 to 100 µM.

With `CNc1cc(-c2cc(Cl)cc3[nH]ncc23)ccn1` [Compound 279] the IC50 [1] was < 3.16 µM, the IC50 [2] was < 3.16 µM and the IC50 [3] was < 3.16 µM. The IC50 [4] was > 100 µM.

For `O=C1CC2(CCN(c3cc(Cl)cc4[nH]ncc34)CC2)CN1` [Compound 280], the IC50 [1] was 3.24 to 31.6 µM, the IC50 [2] was < 3.16 µM and the IC50 [3] was < 3.16 µM. It also gave an IC50 [4] of 3.24 to 31.6 µM.

With `OC(Cc1ccccc1)c1cc(Cl)cc2[nH]ncc12` (centres unmarked) [Compound 281] the IC50 [1] was 3.24 to 31.6 µM, the IC50 [2] was < 3.16 µM and the IC50 [3] was < 3.16 µM. The IC50 [4] was 3.24 to 31.6 µM.

`CC(=O)N(C)CC1CCN(c2cc(Cl)cc3[nH]ncc23)CC1` [Compound 282] was tested, and the IC50 [1] was 3.24 to 31.6 µM, the IC50 [2] was < 3.16 µM and the IC50 [3] was < 3.16 µM. It also gave an IC50 [4] of 32.4 to 100 µM.

`CC(=O)NCC1CCCN(c2cc(Cl)cc3[nH]ncc23)C1` (centres unmarked) [Compound 283] was tested, and the IC50 [1] was 3.24 to 31.6 µM, the IC50 [2] was 3.24 to 31.6 µM and the IC50 [3] was < 3.16 µM. The IC50 [4] was > 100 µM.

In the case of `CS(=O)(=O)NCC1CCCN(c2cc(Cl)cc3[nH]ncc23)C1` (centres unmarked) [Compound 284], the IC50 [1] is reported as 32.4 to 100 µM, the IC50 [2] is reported as 3.24 to 31.6 µM and the IC50 [3] is reported as < 3.16 µM. For the same compound, the IC50 [4] was > 100 µM.

For `CN(CC1CCCN(c2cc(Cl)cc3[nH]ncc23)C1)S(C)(=O)=O` (centres unmarked) [Compound 285], the IC50 [1] was 32.4 to 100 µM, the IC50 [2] was 3.24 to 31.6 µM and the IC50 [3] was 3.24 to 31.6 µM. The IC50 [4] was > 100 µM.

In the case of `CC(=O)N(C)CC1CCCN(c2cc(Cl)cc3[nH]ncc23)C1` (centres unmarked) [Compound 286], the IC50 [1] is reported as 3.24 to 31.6 µM, the IC50 [2] is reported as 3.24 to 31.6 µM and the IC50 [3] is reported as < 3.16 µM. The IC50 [4] was > 100 µM.

In the case of `COC(C)c1cc(Cl)cc2[nH]ncc12` (centres unmarked) [Compound 287], the IC50 [1] is reported as > 100 µM, the IC50 [2] is reported as 3.24 to 31.6 µM and the IC50 [3] is reported as 3.24 to 31.6 µM. The IC50 [4] was > 100 µM.

With `COCCc1cc(Cl)cc2[nH]ncc12` [Compound 288] the IC50 [1] was > 100 µM, the IC50 [2] was < 3.16 µM and the IC50 [3] was < 3.16 µM. The IC50 [4] was > 100 µM.

With `OC(CC1CCOCC1)c1cc(Cl)cc2[nH]ncc12` (centres unmarked) [Compound 289] the IC50 [1] was 32.4 to 100 µM, the IC50 [2] was < 3.16 µM and the IC50 [3] was < 3.16 µM. The IC50 [4] was 32.4 to 100 µM.

For `O=C1NC(=O)C2(CCN(c3cc(Br)cc4[nH]ncc34)CC2)N1` [Compound 290], the IC50 [1] was < 3.16 µM, the IC50 [2] was < 3.16 µM and the IC50 [3] was < 3.16 µM. The IC50 [4] was < 3.16 µM.

In the case of `CN1CC2(CCN(c3cc(Cl)cc4[nH]ncc34)CC2)CC1=O` [Compound 291], the IC50 [1] is reported as 3.24 to 31.6 µM, the IC50 [2] is reported as < 3.16 µM and the IC50 [3] is reported as < 3.16 µM. For the same compound, the IC50 [4] was > 100 µM.

`CC(=O)N1CCC(CNC(=O)c2cc(Cl)cc3[nH]ncc23)CC1` [Compound 295] was tested, and the IC50 [1] was 32.4 to 100 µM, the IC50 [2] was > 100 µM and the IC50 [3] was > 100 µM. For the same compound, the IC50 [4] was > 100 µM.

For `CS(=O)(=O)c1ccc(-c2cc(Cl)cc3[nH]ncc23)c(F)c1` [Compound 297], the IC50 [1] was < 3.16 µM, the IC50 [2] was < 3.16 µM and the IC50 [3] was < 3.16 µM. The IC50 [4] was 3.24 to 31.6 µM.

For `CNC(=O)C1CCN(c2cc(Cl)cc3[nH]ncc23)C1` (centres unmarked) [Compound 298], the IC50 [1] was 3.24 to 31.6 µM, the IC50 [2] was 3.24 to 31.6 µM and the IC50 [3] was < 3.16 µM. It also gave an IC50 [4] of 3.24 to 31.6 µM.

For `OC(c1cc(Cl)cc2[nH]ncc12)C1CCOCC1` (centres unmarked) [Compound 299], the IC50 [1] was > 100 µM, the IC50 [2] was < 3.16 µM and the IC50 [3] was < 3.16 µM. The IC50 [4] was > 100 µM.

With `CNS(=O)(=O)c1ccc(-c2cc(Cl)cc3[nH]ncc23)cc1` [Compound 300] the IC50 [1] was 3.24 to 31.6 µM, the IC50 [2] was < 3.16 µM and the IC50 [3] was < 3.16 µM. For the same compound, the IC50 [4] was 32.4 to 100 µM.

In the case of `O=C(O)C1CCN(c2cc(Cl)cc3[nH]ncc23)CC1` [Compound 301], the IC50 [1] is reported as > 100 µM, the IC50 [2] is reported as 3.24 to 31.6 µM and the IC50 [3] is reported as < 3.16 µM. It also gave an IC50 [4] of 32.4 to 100 µM.
